Test results taken from patent US20250195519A1, “COMBINATION OF DASATINIB AND LOVASTATIN FOR USE IN METHODS FOR THE TREATMENT OF CARDIAC FIBROSIS” (INSERM (INSTITUT NATIONAL DE LA SANTÉ ET DE LA RECHERCHE …, priority 2022, published 2025).
Read-outs that look alike come from different tables or passages of the source.

Test system: human cardiac fibroblasts
Details: 72 h, 10 ng/ml TGFβ; for effect on TGFβ-induced collagen production: Sirius Red
Description: Primary cardiac fibroblasts were isolated and cultured according to the method described previously [11]. […] The suspension was centrifuged at 300 g for 5 min and the cell pellet was resuspended in DMEM F12 medium (Sigma D6434) supplemented with 10% FBS, penicillin (20 U/mL)-streptomycin (20 μg/mL) and 2 mM glutamine and cultured in a 37° C., 5% CO2 incubator. Primary cardiac fibroblasts were used up to passage 3. Cardiac fibroblasts were exposed to 10 ng/ml TGFβ (T) for 72 h in the presence or absence of 5 μM lovastatin (L) or 5 nM dasatinib (D) or combination of 5 μM lovastatin and 5 nM dasatinib (DL).
Following treatment, cardiac fibroblasts were fixed in methanol, and incubated in the 0.1% Picrosirius red staining solution (Sigma-Aldrich, France) as per manufacturer's instructions.
Picrosirius red was solubilised in 0.1 N sodium hydroxide and the optical density was read at 540 nm (SERLABO Technologies, France).
Data are expressed as mean±SEM. Comparison between two groups was performed by Student's two-tailed t-test while comparison of multiple groups was performed by one-way ANOVA followed by a Bonferroni's post hoc test using GraphPad Prism version 5.00 (GraphPad Software, Inc).

SMILES	collagen values relative to control (5 nM dasatinib)	effect on TGFβ-induced collagen production (5 nM dasatinib)	collagen values relative to control (5 μM lovastatin)	effect on TGFβ-induced collagen production (5 μM lovastatin)
Cc1nc(Nc2ncc(C(=O)Nc3c(C)cccc3Cl)s2)cc(N2CCN(CCO)CC2)n1 [dasatinib, N-(2-chloro-6-methylphenyl)-2-[6-[4-(2-hydroxyethyl)-1-piperazinyl]-2-methyl-4-pyrimidinyl]amino]-5-thiazole carboxamide monohydrate]	did not reach control values	modest but significant effects	–	–
CCC(C)C(=O)OC1CC(C)C=C2C=CC(C)C(CCC3CC(O)CC(=O)O3)C21 (stereo not shown) [lovastatin, [8-[2-(4-hydroxy-6-oxo-oxan-2-yl)ethyl]-3,7-dimethyl-1,2,3,7,8,8a-hexahydronaphthalen-1-yl] 2-methylbutanoate]	–	–	did not reach control values	modest but significant effects
